The text below walks through data of US9625458B2, “Biosensor” (priority 2002, dated 2017).

Test [1] has as its target T1, E. coli sulfate binding protein variant W290C, fluorophore conjugate (Escherichia coli, UniProt P0AG78, W309C).
T1 construct: Gly-Ser-Gly-(His)n or Gly-Ser-(His)n, n=5, 6 or 10 (C); initiator methionine (N); made in house; host or cells: E. coli strain BL21-DE3
Briefly: Fluorimetric titration of fluorophore conjugates. Conditions: JPW4042 conjugate, ligand sulfate. The source says: (§1) Molecular Cloning. […] Amplified products were cloned into one of the protein expression vectors pAED4 (Doering, “Functional and structural studies of a small f-actin binding domain” in Ph.D. thesis, Massachusetts Institute of Technology, 1992); pKK223-3 (Brosius & Holy, Proc. Natl. Acad. Sci. USA 81:6929-6933, 1984); or pET vectors (Studier et al., Meth. Enzymol. 185:60-89, 1990) (Novagen). N-terminal oligonucleotide primers were designed to clone only the processed periplasmic form, deleting the signal sequence. The C-terminal primer was designed to append the sequence Gly-Ser-Gly-(His)n or Gly-Ser-(His)n, where n=5, 6, or 10. Two tandem stop codons (TAATGA) follow the last His codon. […] Single amino acid substitutions were generated by overlapping PCR mutagenesis (Ho et al., Gene 77:51-59, 1989). All clones and mutations were confirmed by nucleotide sequencing. In the case of arabinose BP, the single cysteine in the wild type sequence was replaced by alanine to eliminate the possibility of reporter group conjugation to this thiol (Miller et al., J. Biol. Chem. 254:7521-7528, 1979). Additionally the sequence of Fe(III) BP was mutated by substitution of Glu57 with Asp to raise the Kd to a concentration range conveniently measured using Fe(III) citrate.
(§2) Fluorophore conjugation to cysteine-substituted bPBPs. Thiol-reactive fluorophores obtained from Molecular Probes (Eugene, Oreg.) were 5-iodoacetamidofluorescein (fluorescein); N-(1-pyrene) iodoacetamide (pyrene); N,N′-dimethyl-N-(iodoacetyl)-N′-(7-nitrobenz-2-oxa-1,3-diazol-4-yl)ethylenediamide (NBD); N-((2-(iodoacetoxy)ethyl)-N-methyl)amino-7-nitrobenz-2-oxa-1,3-diazole (NBDE); and 6-acryloyl-2-dimethylaminonaphthalene (acrylodan). The styryl and naphthyl dyes JPW4039, JPW4042, and JPW4045 (FIG. 3) were synthesized at the University of Connecticut. All fluorophore conjugation steps were typically carried out at room temperature. To protein at a concentration of 100 μM was added tris-(2-carboxyethyl)phosphine HCl to a five-fold molar excess to reduce intermolecular disulfide bonds. A thiol-reactive fluorophore (20 to 25 mM in acetonitrile or dimethyl sulfoxide) was added in small aliquots to a five-fold molar excess over protein. Conjugation proceeded in the dark at room temperature for 4 hours, or overnight at 4° C. Separation of protein from unreacted fluorophore was achieved by exhaustive dialysis or by size-exclusion chromatography. The efficiency of reporter group attachment was assessed by determination of unreacted thiol with Ellman's reagent (Ellman, Arch. Biochem. Biophys. 74:443-450, 1958) or by measuring the ratio of fluorophore to protein from absorbance spectra of the purified conjugate.
(§3) Sulfate BP buffer (20 mM Tris-HCl, pH 8.0) was passed through the chloride form of Dowex 1X2-100 strongly basic anion-exchange resin. Sulfate BP solutions were treated by dialysis against treated buffer; Dowex resin held in a separate dialysis tube was also included.
(§4) Fluorimetry. All measurements were conducted with an SLM Aminco-Bowman series 2 fluorimeter, with sample stirring at 25° C. Fluorescence emission spectra were acquired with excitation and emission slit widths of 4 and 8 nm, respectively. Photomultiplier tube potential was maintained between 400 and 800 volts. Protein concentrations were in the range of 50 to 1000 nM. Fluorophore-specific excitation was at the following approximate wavelengths: tryptophan, 290 nm; acrylodan, 390 nm; fluorescein, 485 nm; pyrene, 340 nm; NBD and NBDE, 490 nm; JPW4039, 485 nm; JPW4042, 470 nm; JPW4045, 470 nm.
(§5) Corrections were made for dilution of the protein and for background signal from buffer. Binding curves were fit to binding isotherms using equation 3 or 4, as appropriate.
(§6) Analyte affinity measurements. […] The emission wavelength monitored was that of maximum difference in intensity between the ligand-free and bound states.

In test [2] the target is T2, E. coli sulfate binding protein variant R134C, fluorophore conjugate (Escherichia coli, UniProt P0AG78, R153C).
T2 construct: Gly-Ser-Gly-(His)n or Gly-Ser-(His)n, n=5, 6 or 10 (C); initiator methionine (N); made in house; host or cells: E. coli strain BL21-DE3
T2 sequence (P0AG78 20-329 R153C): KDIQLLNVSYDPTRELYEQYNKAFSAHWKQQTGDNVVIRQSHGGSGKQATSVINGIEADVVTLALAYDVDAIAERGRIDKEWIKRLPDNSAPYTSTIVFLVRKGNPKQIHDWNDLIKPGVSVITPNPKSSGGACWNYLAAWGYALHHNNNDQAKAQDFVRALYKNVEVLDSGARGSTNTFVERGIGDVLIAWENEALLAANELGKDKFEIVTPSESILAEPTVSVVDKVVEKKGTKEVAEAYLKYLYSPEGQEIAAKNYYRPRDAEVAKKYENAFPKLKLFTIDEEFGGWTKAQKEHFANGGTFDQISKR
Kind of test: Fluorimetric titration of fluorophore conjugates.
From the text: as §1, §2, §3, §4, §5, §6

Test [3] addresses T3, E. coli sulfate binding protein variant L65C, fluorophore conjugate (Escherichia coli, UniProt P0AG78, L84C).
T3 construct: Gly-Ser-Gly-(His)n or Gly-Ser-(His)n, n=5, 6 or 10 (C); initiator methionine (N); made in house; host or cells: E. coli strain BL21-DE3
Briefly: Fluorimetric titration of fluorophore conjugates. Particulars: Fluorescein conjugate, ligand sulfate.
From the text: as §1, §2, §3, §4, §5, §6

In test [4] the target is T4, E. coli sulfate binding protein variant Q294C, fluorophore conjugate (Escherichia coli, UniProt P0AG78, Q313C).
T4 construct: Gly-Ser-Gly-(His)n or Gly-Ser-(His)n, n=5, 6 or 10 (C); initiator methionine (N); made in house; host or cells: E. coli strain BL21-DE3
T4 sequence (P0AG78 20-329 Q313C): as the sequence (P0AG78 20-329 R153C) above, with C134R, Q294C counted along it
Kind of test: Fluorimetric titration of fluorophore conjugates. Conditions: JPW4042 conjugate, ligand sulfate.
From the text: as §1, §2, §3, §4, §5, §6

For test [5], the target named is T5, E. coli sulfate binding protein (SBP), fluorophore-conjugated cysteine mutants (Escherichia coli, UniProt P0AG78).
T5 construct: several single-Cys mutants with fluorophores
T5 sequence (P0AG78 20-329, change not shown): as the sequence (P0AG78 20-329 R153C) above, with C134R counted along it
Kind of test: Ligand affinity of sulfate BP fluorescent conjugates (Kd range). Particulars: range over conjugates, n=8. The source says:
Molecular Cloning. […] Amplified products were cloned into one of the protein expression vectors pAED4 (Doering, “Functional and structural studies of a small f-actin binding domain” in Ph.D. thesis, Massachusetts Institute of Technology, 1992); pKK223-3 (Brosius & Holy, Proc. Natl. Acad. Sci. USA 81:6929-6933, 1984); or pET vectors (Studier et al., Meth. Enzymol. 185:60-89, 1990) (Novagen). N-terminal oligonucleotide primers were designed to clone only the processed periplasmic form, deleting the signal sequence. The C-terminal primer was designed to append the sequence Gly-Ser-Gly-(His)n or Gly-Ser-(His)n, where n=5, 6, or 10. Two tandem stop codons (TAATGA) follow the last His codon. […] Additionally the sequence of Fe(III) BP was mutated by substitution of Glu57 with Asp to raise the Kd to a concentration range conveniently measured using Fe(III) citrate.
Fluorophore conjugation to cysteine-substituted bPBPs. […] The efficiency of reporter group attachment was assessed by determination of unreacted thiol with Ellman's reagent (Ellman, Arch. Biochem. Biophys. 74:443-450, 1958) or by measuring the ratio of fluorophore to protein from absorbance spectra of the purified conjugate. […]
Fluorimetry. […] Fluorescence emission spectra were acquired with excitation and emission slit widths of 4 and 8 nm, respectively. […]

T3 sequence (P0AG78 20-329 L84C): as the sequence (P0AG78 20-329 R153C) above, with L65C, C134R counted along it
T1 sequence (P0AG78 20-329 W309C): as the sequence (P0AG78 20-329 R153C) above, with C134R, W290C counted along it

On to `O=S(=O)(O)O` [sulfate], for which the Kd in test [1] came to 0.336 µM; in test [2] (Acrylodan conjugate, R134C, ligand sulfate), 4.17 µM; in test [2] (Fluorescein conjugate, R134C, ligand sulfate), 0.323 µM; in test [2] (JPW4039 conjugate, R134C, ligand sulfate), 7.5 µM; in test [2] (JPW4042 conjugate, R134C, ligand sulfate) it was 29.1 µM; in test [2] (NBD conjugate, R134C, ligand sulfate), 22.4 µM. For the same molecule, the Kd was approximately 4 µM in test [2] (R134C-acrylodan), 1.09 µM in test [3], 0.83 µM in test [4] and 0.32 to 29 µM in test [5].
